Test results from paper PMC7589190, “Targeted Amino Acid Substitutions in a Trichoderma Peptaibol Confer Activity against Fungal Plant Pathogens and Protect Host Tissues from Botrytis cinerea Infection” (International Journal of Molecular Sciences, 2020).
“Also recorded” adds a separate entry of the source. Marks after values point to notes of the source that are not given here. Square brackets hold non-standard residues; d marks the D form. Peptide text beside a SMILES is read from it. * marks the point of attachment. Leu(ol) = CC(C)C[C@H](N)CO; Octanoyl = CCCCCCCC(=O)*; Api = NC1(C(=O)O)CCNCC1; Aib = CC(C)(N)C(=O)O

Key:
[1] = test system: B. cinerea; assay: Resazurin vital dye growth assay in microtiter wells; format: cell-based, Botrytis cinerea; design: key to Antifungal Activity: –, no activity; settings: for Growth Delay / fungal growth / activity against B. cinerea (in words): peptide 15 µM; for Growth Delay: PDB pH 6.9, 5 × 10^5 spores mL^−1, resazurin, 25 °C dark, vs untreated control, repeated three times; for fungal growth / activity against B. cinerea (in words): resazurin dye; for Antifungal Activity: summary of performance of Lys-containing analogs against B. cinerea
[2] = test system: pronase E (a mixture of different proteases); settings: after 27 h, HPLC
[3] = test system: trypsin; settings: HPLC
[4] = test system: B. cinerea conidia; assay: Cell viability assay of conidia (Evan's blue staining, plating on PDA); format: cell-based, Botrytis cinerea; settings: 15 µM
[5] = test system: B. cinerea; format: cell-based, Botrytis cinerea; settings: 15 µM, 96 h, absorbance at 450 nm
[6] = test system: B. sorokiniana; format: cell-based, Bipolaris sorokiniana; settings: for growth inhibition at maximum concentration tested: 15 µM, 96 h, absorbance at 450 nm
[7] = test system: B. cinerea; assay: Protection of grapevine leaves from B. cinerea infection; format: in vivo, Botrytis cinerea; settings: grapevine leaves cv. Glera, 50 µM, 7 dpi, vs water control, three experiments
[8] = test system: B. cinerea; assay: Protection of grape berries from B. cinerea infection; format: in vivo, Botrytis cinerea; settings: 50 µM, vs control
[9] = test system: F. graminearum; settings: for MIC: 96 h, pH 6.9
[10] = test system: P. expansum; settings: for growth inhibition at maximum concentration tested: 15 µM, 96 h, absorbance at 450 nm
[11] = test system: B. cinerea; assay: Protection of common bean leaves from B. cinerea infection; settings: for reduction of infected (symptomatic) leaf area: common bean leaves (Phaseolus vulgaris, Borlotto var. Teggia), peptide sprayed at 50 µM
Procedure: Leaves of common bean (Phaseolus vulgaris, Borlotto var. Teggia) were detached from 12 days-old plants grown in organic soil into a climatic chamber with a 14 h photoperiod and 22/20 °C day/night temperature.
Treatments were performed by spraying the peptides at different concentrations on leaves and berries. Water spraying was performed as a negative control.
Leaves were arranged on moist towels in plastic trays and inoculated with a suspension of 2.5 × 10^6 mL^−1 conidia of B. cinerea in potato dextrose broth (PDB). Ten microliters of the conidia suspension were dropped on two or three points apart on the leaf surface of common bean and grapevine leaves, respectively.
Inoculated leaves and berries were incubated in the dark at 25 °C in plastic bags to maintain humidity.
Seven days post-inoculation (dpi), the size of the symptomatic leaf area was measured from pictures taken with a Panasonic Lumix DMC-FZ2000 by using the graphic software “Fiji ImageJ” (GNU General Public License).
The experiment was repeated three times with leaves and four times with berries. Each treatment was performed with seven leaves of common bean and three leaves of the grapevine.
Data obtained in the infection experiments performed on common bean leaves were statistically analyzed by applying the one-way Anova Bonferroni–Holm test. The statistical analysis was performed within the groups of peptides tested at the same time compared to their respective control.

[12] = Water solubility of the peptides; format: physicochemical; settings: native peptide; solubilized in ethanol before dilution in water
Procedure: Peptides were produced by manual and semiautomatic solid-phase peptide synthesis (SPPS). To reduce the impact on the environment of the synthesis, a limited excess of reagents was employed in the coupling steps (1.5–2.5 equivalents of coupling reagents instead of the standard 4 equivalents-1 equivalent corresponds to the loading of the resin). Moreover, all steps were performed in the ecofriendly solvent mixture of dimethylsulfoxide/ethyl acetate 1:9 instead of the hazardous solvent N,N-dimethylformamide (DMF). We exploited ethyl cyano(hydroxyimino) acetate (Oxyma pure) and diisopropylcarbodiimide (DIC), classified by the ACS Green Chemistry Institute® Pharmaceutical Roundtable as two of the greenest coupling reagents, instead of the commonly employed O-benzotriazol-1-yl-1,1,3,3 tetramethyluronium hexafluorophosphate (HBTU)/1-hydroxy-1,2,3-benzotriazole (HOBt) mixture or HATU [2-(1H-7-aza-1,2,3-benzotriazol-1-yl)-1,1,3,3-tetramethyl uronium hexafluorophosphate]. The strategy reduced the environmental impact and synthetic costs by more than 70% compared to our previous methods based on standard procedure. By adopting a manual/semiautomatic synthetic approach, the amount of solvents and reagents were reduced relative to those used in automated synthesis. The steric hindrance of Aib makes it poorly reactive, to the point that standard procedures employ repeated couplings. […]

[13] = monitored every 12 h for seven days

Compound: CCCCCCCC(=O)NC(C)(C)C(=O)N[C@@H](CCCCN)C(=O)N[C@@H](CC(C)C)C(=O)NC(C)(C)C(=O)N[C@@H](CCCCN)C(=O)NCC(=O)N[C@@H](CC(C)C)C(=O)NC(C)(C)C(=O)NCC(=O)N[C@H](C(=O)N[C@H](CO)CC(C)C)[C@@H](C)CC [Peptide 1] (Octanoyl-[Aib]KL[Aib]KGL[Aib]GI[Leu(ol)])
- Growth Delay [1, 13]: 12 to 24 h
- fungal growth / activity against B. cinerea (in words) [1, 13]: delayed growth
- Antifungal Activity [1]: + ^a
- stability against pronase [2]: stable
- time to digestion by trypsin [3]: less than 15 min

Compound: CCCCCCCC(=O)NC(C)(C)C(=O)N[C@@H](CCCCN)C(=O)N[C@@H](CC(C)C)C(=O)NC(C)(C)C(=O)NCC(=O)NCC(=O)N[C@@H](CC(C)C)C(=O)NC(C)(C)C(=O)NCC(=O)N[C@H](C(=O)N[C@H](CO)CC(C)C)[C@@H](C)CC [Peptide 2] (Octanoyl-[Aib]KL[Aib]GGL[Aib]GI[Leu(ol)])
- Growth Delay [1, 13]: 36 to 48 h
- fungal growth / activity against B. cinerea (in words) [1, 13]: delayed growth
- Antifungal Activity [1]: ++

Compound: CCCCCCCC(=O)NC(C)(C)C(=O)NCC(=O)N[C@@H](CC(C)C)C(=O)NC(C)(C)C(=O)N[C@@H](CCCCN)C(=O)NCC(=O)N[C@@H](CC(C)C)C(=O)NC(C)(C)C(=O)NCC(=O)N[C@H](C(=O)N[C@H](CO)CC(C)C)[C@@H](C)CC [Peptide 3]
- Growth Delay [1, 13]: 0 h
- fungal growth / activity against B. cinerea (in words) [1, 13]: fungal growth was observed after 12 h
- Antifungal Activity [1]: –

Compound: CCCCCCCC(=O)NC(C)(C)C(=O)NCC(=O)N[C@@H](CC(C)C)C(=O)NC(C)(C)C(=O)N[C@@H](CCCCN)C(=O)N[C@@H](CCCCN)C(=O)N[C@@H](CC(C)C)C(=O)NC(C)(C)C(=O)NCC(=O)N[C@H](C(=O)N[C@H](CO)CC(C)C)[C@@H](C)CC [Peptide 4]
- Growth Delay ([1]; monitored for seven days): >170 h
- fungal growth / activity against B. cinerea (in words) [1, 13]: No growth occurred
- Antifungal Activity [1]: ++++
- germination of conidia (microscopy, Evans blue) ([4]; 24 h incubation in PDB, 5 × 10^5 mL^−1 conidia): conidia did not germinate
- fungal growth after rinsing and plating treated conidia on PDA (fungicidal activity) ([4]; treated 24 h, rinsed with distilled water, plated on PDA): No fungal growth was observed
- growth inhibition at maximum concentration tested [5]: completely inhibited the growth
- growth inhibition at maximum concentration tested [6]: strong growth inhibition effect
- reduction of infected leaf area [7]: about 70%
- increase in the number of asymptomatic berries [8]: threefold increase
- growth inhibition at maximum concentration tested [9]: completely inhibited the growth
- MIC [9]: 5 to 15 µM
- growth inhibition at maximum concentration tested [10]: completely inhibited the growth
- reduction of infected (symptomatic) leaf area ([11]; 7 dpi, vs water control): > 95%
- disease symptoms (in words) ([11]; common bean leaves, 15 µM): significant decrease in disease symptoms
- disease symptoms (in words) ([11]; common bean leaves, 50 µM): almost complete annulment
- reduction of lesion (symptomatic leaf) area ([11]; common bean leaves, peptide sprayed at 15 µM, 7 dpi, vs water control): about 75%

Compound: CCCCCCCC(=O)NC(C)(C)C(=O)NCC(=O)N[C@@H](CC(C)C)C(=O)NC(C)(C)C(=O)N[C@@H](CCCCN)C(=O)N[C@@H](CCCCN)C(=O)N[C@@H](CC(C)C)C(N)=O [Peptide 4c1] (Octanoyl-[Aib]GL[Aib]KKL-NH2)
- Growth Delay ([1]; monitored for seven days): >170 h
- fungal growth / activity against B. cinerea (in words) [1, 13]: inhibiting mycelial growth
- reduction of infected (symptomatic) leaf area ([11]; 7 dpi, vs water control): ~55%

Compound: CCCCCCCC(=O)NC(C)(C)C(=O)N[C@@H](CCCCN)C(=O)N[C@@H](CCCCN)C(=O)N[C@@H](CC(C)C)C(=O)NC(C)(C)C(=O)NCC(=O)N[C@H](C(=O)N[C@@H](CC(C)C)C(N)=O)[C@@H](C)CC [Peptide 4c2] (Octanoyl-[Aib]KKL[Aib]GIL-NH2)
- Growth Delay ([1]; monitored for seven days): >170 h
- fungal growth / activity against B. cinerea (in words) [1, 13]: inhibiting mycelial growth
- reduction of infected (symptomatic) leaf area ([11]; 7 dpi, vs water control): about 70%

Compound: CCCCCCCC(=O)NC(C)(C)C(=O)N[C@@H](CCCCN)C(=O)N[C@@H](CCCCN)C(=O)N[C@@H](CC(C)C)C(=O)NC(C)(C)C(=O)NCC(=O)N[C@H](C(=O)N[C@H](CO)CC(C)C)[C@@H](C)CC [Peptide 4c] (Octanoyl-[Aib]KKL[Aib]GI[Leu(ol)])
- Growth Delay ([1]; monitored for seven days): >170 h
- fungal growth / activity against B. cinerea (in words) [1, 13]: inhibiting mycelial growth
- reduction of infected (symptomatic) leaf area ([11]; 7 dpi, vs water control): ~55%

Compound: CCCCCCCC(=O)NC(C)(C)C(=O)NCC(=O)N[C@@H](CC(C)C)C(=O)NC(C)(C)C(=O)NCC(=O)N[C@@H](CCCCN)C(=O)N[C@@H](CC(C)C)C(=O)NC(C)(C)C(=O)NCC(=O)N[C@H](C(=O)N[C@H](CO)CC(C)C)[C@@H](C)CC [Peptide 5]
- Growth Delay ([1]; monitored for seven days): >170 h
- fungal growth / activity against B. cinerea (in words) [1, 13]: No growth occurred
- Antifungal Activity [1]: ++++
- growth inhibition at maximum concentration tested [5]: completely inhibited the growth
- growth inhibition at maximum concentration tested [6]: strong growth inhibition effect
- growth inhibition at maximum concentration tested [9]: completely inhibited the growth
- MIC [9]: 5 to 15 µM
- growth inhibition at maximum concentration tested [10]: completely inhibited the growth
- reduction of infected (symptomatic) leaf area ([11]; 7 dpi, vs water control): > 95%
- disease symptoms (in words) ([11]; common bean leaves, 15 µM): significant decrease in disease symptoms
- disease symptoms (in words) ([11]; common bean leaves, 50 µM): almost complete annulment

Compound: CCCCCCCC(=O)NC(C)(C)C(=O)NCC(=O)N[C@@H](CC(C)C)C(=O)NC(C)(C)C(=O)N[C@@H](CCCCN)C(=O)NC(C)(C)C(=O)N[C@@H](CC(C)C)C(=O)NC(C)(C)C(=O)NCC(=O)N[C@H](C(=O)N[C@H](CO)CC(C)C)[C@@H](C)CC [Peptide 6]
- Growth Delay [1, 13]: 12 to 24 h
- fungal growth / activity against B. cinerea (in words) [1, 13]: delayed growth
- Antifungal Activity [1]: +

Compound: CCCCCCCC(=O)NC(C)(C)C(=O)N[C@@H](CCCCN)C(=O)N[C@@H](CC(C)C)C(=O)NC(C)(C)C(=O)NCC(=O)N[C@@H](CCCCN)C(=O)N[C@@H](CC(C)C)C(=O)NC(C)(C)C(=O)NCC(=O)N[C@H](C(=O)N[C@H](CO)CC(C)C)[C@@H](C)CC [Peptide 7]
- Growth Delay [1, 13]: 72 to 84 h
- fungal growth / activity against B. cinerea (in words) [1, 13]: delayed growth
- Antifungal Activity [1]: ++

Compound: CCCCCCCC(=O)NC(C)(C)C(=O)NCC(=O)N[C@@H](CC(C)C)C(=O)NC(C)(C)C(=O)NCC(=O)NCC(=O)N[C@@H](CC(C)C)C(=O)NC1(C(=O)NCC(=O)N[C@H](C(=O)N[C@H](CO)CC(C)C)[C@@H](C)CC)CCNCC1 [Peptide 8, [Api^8]-trichogin] (Octanoyl-[Aib]GL[Aib]GGL[Api]GI[Leu(ol)])
- Growth Delay ([1]; monitored for seven days): >170 h
- fungal growth / activity against B. cinerea (in words) [1, 13]: No growth occurred
- growth inhibition at maximum concentration tested [5]: completely inhibited the growth
- growth inhibition at maximum concentration tested [6]: strong growth inhibition effect
- growth inhibition at maximum concentration tested [9]: completely inhibited the growth
- MIC [9]: 5 to 15 µM
- growth inhibition at maximum concentration tested [10]: completely inhibited the growth

Compound: nOct-Aib-Gly^2-Leu-Aib-Gly^5-Gly-Leu-Aib^8-Gly-Ile-Lol [trichogin, trichogin GA IV, reference compound]
- water solubility (in words) [12]: poor water solubility
- Growth Delay [1, 13]: 0 h
- fungal growth / activity against B. cinerea (in words) [1, 13]: fungal growth was observed after 12 h; also recorded: completely inactive
- activity against B. sorokiniana (in words) [6]: inactive
- activity against F. graminearum (in words) [9]: inactive
- activity against P. expansum (in words) [10]: inactive
